Results reported in US20260297085A1, “1 H-PYRROLO[2,3-B]PYRIDIN-4-YL]-2-OXOPYRROLIDINE-3-CARBONITRILE DERIVATIVES AS TYROSINE KINASE 2 (TYK2) INHIBITORS FOR THE TREATMENT OF INFLAMMATORY DISEASES” (BIOGEN MA INC., priority 2023, published 2026).

Assays:
Settings in all cases: JH1 kinase domain, ADP-Glo
[1] = biological target: T1, human JAK1 kinase domain (JH1) (Homo sapiens, UniProt P23458); assay: JH1 biochemical assay for JAK1 (ADP-Glo kinase assay, recombinant JH1 catalytic domain, JAK3-342 peptide, 35 μM ATP)
T1 construct: recombinantly generated catalytic kinase (also known as JH1) domain of human JAK1, JAK2, JAK3 and TYK2
T1 sequence (P23458 875-1153 limits assumed): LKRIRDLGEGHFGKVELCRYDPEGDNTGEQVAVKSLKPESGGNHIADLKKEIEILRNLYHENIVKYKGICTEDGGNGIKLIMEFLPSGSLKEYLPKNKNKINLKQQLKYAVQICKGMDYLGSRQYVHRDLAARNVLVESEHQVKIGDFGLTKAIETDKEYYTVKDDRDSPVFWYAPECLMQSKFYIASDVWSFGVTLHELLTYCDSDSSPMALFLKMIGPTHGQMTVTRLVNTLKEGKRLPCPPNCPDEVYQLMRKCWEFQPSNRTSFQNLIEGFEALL
Method: (§1) Compounds of the disclosure were assessed for their ability to inhibit TYK2, JAK1, JAK2, and JAK3 activity. The inhibitory properties of the compounds of the disclosure described herein can be evidenced by testing in any one of the following protocols.
(§2) The kinase activity of recombinantly generated catalytic kinase (also known as JH1) domain of human JAK1, JAK2, JAK3 and TYK2 were evaluated in a plate-based assay using the ADP-Glo™ Kinase Assay platform. Specifically, 4 nM of recombinant JAK1 kinase domain is used to phosphorylate 50 μM of a JAK3-342 (sequence ALVDGYFRLTT) peptide in the presence of 35 μM ATP. Catalytic activities of recombinant JAK2, JAK3 and TYK2 kinase domain (0.2, 0.3 and 2 nM, respectively) are evaluated by the phosphorylation status of the JAK3-974 (50 μM; sequence LPLDKDYYVVR) peptide with the addition of ATP (15, 4 and 10 μM, respectively). The reactions proceed for 100 minutes and the catalytic activity is quantified by first depleting the unused ATP, converting the hydrolyzed ADP into ATP to generate luminescence in a luciferase reaction; which is the basis of the ADP-Glo platform. Compounds are tested at either 10 μM or 1 μM top concentration, 11 points of 3-fold dilution. The data is normalized and the percent activity versus log concentration of compound is fitted with a 4-parameter logistic model to generate a curve and an IC50 value.

[2] = biological target: T2, human TYK2 kinase domain (JH1) (Homo sapiens, UniProt P29597); assay: JH1 biochemical assay for TYK2 (ADP-Glo kinase assay, recombinant JH1 catalytic domain, JAK3-974 peptide, 10 μM ATP)
T2 construct: recombinantly generated catalytic kinase (also known as JH1) domain of human JAK1, JAK2, JAK3 and TYK2
T2 sequence (P29597 897-1176 limits assumed): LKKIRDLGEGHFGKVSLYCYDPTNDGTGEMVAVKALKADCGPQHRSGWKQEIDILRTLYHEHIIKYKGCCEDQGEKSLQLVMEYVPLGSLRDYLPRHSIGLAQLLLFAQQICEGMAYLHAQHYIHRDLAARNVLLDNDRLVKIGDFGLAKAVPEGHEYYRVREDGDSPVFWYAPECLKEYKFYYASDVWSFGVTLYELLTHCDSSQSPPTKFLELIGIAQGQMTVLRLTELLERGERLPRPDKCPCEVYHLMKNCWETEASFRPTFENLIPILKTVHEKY
Method: as §1, §2

[3] = biological target: T3, human JAK3 kinase domain (JH1) (Homo sapiens, UniProt P52333); assay: JH1 biochemical assay for JAK3 (ADP-Glo kinase assay, recombinant JH1 catalytic domain, JAK3-974 peptide, 4 μM ATP)
T3 construct: recombinantly generated catalytic kinase (also known as JH1) domain of human JAK1, JAK2, JAK3 and TYK2
T3 sequence (P52333 822-1111 limits assumed): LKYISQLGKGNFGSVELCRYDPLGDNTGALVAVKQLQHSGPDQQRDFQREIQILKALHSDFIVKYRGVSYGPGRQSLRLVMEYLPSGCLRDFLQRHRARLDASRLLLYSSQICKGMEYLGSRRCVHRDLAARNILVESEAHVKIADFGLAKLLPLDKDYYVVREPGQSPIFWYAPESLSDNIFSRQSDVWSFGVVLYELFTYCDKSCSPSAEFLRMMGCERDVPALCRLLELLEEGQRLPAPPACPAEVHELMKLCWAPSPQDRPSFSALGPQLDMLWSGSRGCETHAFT
Method: as §1, §2

[4] = biological target: T4, human JAK2 kinase domain (JH1) (Homo sapiens, UniProt O60674); assay: JH1 biochemical assay for JAK2 (ADP-Glo kinase assay, recombinant JH1 catalytic domain, JAK3-974 peptide, 15 μM ATP)
T4 construct: recombinantly generated catalytic kinase (also known as JH1) domain of human JAK1, JAK2, JAK3 and TYK2
T4 sequence (O60674 849-1124 limits assumed): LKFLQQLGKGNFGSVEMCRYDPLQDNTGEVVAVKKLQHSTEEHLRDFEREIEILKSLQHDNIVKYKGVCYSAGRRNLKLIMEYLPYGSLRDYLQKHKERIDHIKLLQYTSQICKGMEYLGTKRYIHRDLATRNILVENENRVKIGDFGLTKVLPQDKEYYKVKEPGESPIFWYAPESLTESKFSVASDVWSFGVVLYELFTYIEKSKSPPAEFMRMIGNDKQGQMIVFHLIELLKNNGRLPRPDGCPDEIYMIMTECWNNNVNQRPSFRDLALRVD
Method: as §1, §2

Compound	IC50 [1] [µM]	IC50 [2] [µM]	IC50 [3] [µM]	IC50 [4] [µM]
Cn1cc(-c2cc3c(N4C[C@H](C(F)F)[C@@](C#N)(C5CC5)C4=O)ccnn3c2)cn1 (racemic) [Example 152, rac-(3R,4R)-3-cyclopropyl-4-(difluoromethyl)-1-(6-(1-methyl-1H-pyrazol-4-yl)pyrrolo[1,2-b]pyridazin-4-yl)-2-oxopyrrolidine-3-carbonitrile]	1 to 5	> 0.1	1 to 5	1 to 5
Cn1cc(-c2cc3c(N4CC[C@H](C5CC5)C4=O)ccnn3c2)cn1 (single isomer, unassigned) [Example 36]	> 10	> 0.1	> 10	5 to 10
Cn1cc(-c2cc3c(N4CC[C@@H](C5CC5)C4=O)ccnn3c2)cn1 (single isomer, unassigned) [Example 37]	> 10	> 0.1	1 to 5	1 to 5
Cn1cc(-c2cc3c(N4CC[C@](C#N)(C5CC5)C4=O)ccnc3[nH]2)cn1 [Example 2, (R)-3-cyclopropyl-1-(2-(1-methyl-1H-pyrazol-4-yl)-1H-pyrrolo[2,3-b]pyridin-4-yl)-2-oxopyrrolidine-3-carbonitrile]	0.1 to 1	0.05 to 0.1	1 to 5	0.1 to 1
COc1cc(-c2cc3c(N4CC[C@](C#N)(C5CC5)C4=O)ccnn3c2)ccn1 [Example 13, (R)-3-cyclopropyl-1-(6-(2-methoxypyridin-4-yl)pyrrolo[1,2-b]pyridazin-4-yl)-2-oxopyrrolidine-3-carbonitrile]	5 to 10	> 0.1	> 10	> 10
Cn1cc(-c2cc3c(N4CC[C@@](C(F)F)(C5CC5)C4=O)ccnn3c2)cn1 [Example 15, (R)-3-cyclopropyl-3-(difluoromethyl)-1-(6-(1-methyl-1H-pyrazol-4-yl)pyrrolo[1,2-b]pyridazin-4-yl)pyrrolidin-2-one]	1 to 5	> 0.1	1 to 5	1 to 5
C[C@@H]1C[C@](C#N)(C2CC2)C(=O)N1c1ccnn2cc(-c3cnn(C)c3)cc12 [Example 16, (3R,5R)-3-cyclopropyl-5-methyl-1-(6-(1-methyl-1H-pyrazol-4-yl)pyrrolo[1,2-b]pyridazin-4-yl)-2-oxopyrrolidine-3-carbonitrile]	5 to 10	> 0.1	> 10	0.1 to 1
C[C@@H]1C[C@@](C#N)(C2CC2)C(=O)N1c1ccnn2cc(-c3cnn(C)c3)cc12 [Example 17, (3S,5R)-3-cyclopropyl-5-methyl-1-(6-(1-methyl-1H-pyrazol-4-yl)pyrrolo[1,2-b]pyridazin-4-yl)-2-oxopyrrolidine-3-carbonitrile]	1 to 5	> 0.1	5 to 10	0.1 to 1
CC[C@@H]1C[C@@](C#N)(C2CC2)C(=O)N1c1ccnn2cc(-c3cnn(C)c3)cc12 [Example 18, (3S,5R)-3-cyclopropyl-5-ethyl-1-(6-(1-methyl-1H-pyrazol-4-yl)pyrrolo[1,2-b]pyridazin-4-yl)-2-oxopyrrolidine-3-carbonitrile]	1 to 5	> 0.1	1 to 5	0.1 to 1
CC[C@H]1C[C@@](C#N)(C2CC2)C(=O)N1c1ccnn2cc(C3=NC(C)N=C3)cc12 (stereo partly drawn) [Example 19, (3S,5S)-3-cyclopropyl-5-ethyl-1-(6-(2-methyl-2H-imidazol-4-yl)pyrrolo[1,2-b]pyridazin-4-yl)-2-oxopyrrolidine-3-carbonitrile]	> 10	> 0.1	> 10	> 10
C[C@@H]1CN(c2ccnn3cc(-c4cnn(C)c4)cc23)C(=O)[C@]1(C#N)C1COC1 [Example 20, (3S,4S)-4-methyl-1-(6-(1-methyl-1H-pyrazol-4-yl)pyrrolo[1,2-b]pyridazin-4-yl)-3-(oxetan-3-yl)-2-oxopyrrolidine-3-carbonitrile]	> 10	> 0.1	> 10	5 to 10
C[C@@H]1CN(c2ccnn3cc(-c4cnn(C)c4)cc23)C(=O)[C@@]1(C#N)C1CC1 [Example 21, (3S,4S)-3-cyclopropyl-4-methyl-1-(6-(1-methyl-1H-pyrazol-4-yl)pyrrolo[1,2-b]pyridazin-4-yl)-2-oxopyrrolidine-3-carbonitrile]	> 10	> 0.1	> 10	> 10

Continued, values first:

IC50 [1] [µM]	IC50 [2] [µM]	IC50 [3] [µM]	IC50 [4] [µM]	Compound
1 to 5	0.05 to 0.1	1 to 5	1 to 5	Cn1cc(-c2cc3c(N4CC[C@@](C)(C#N)C4=O)ccnn3c2)cn1 (single isomer, unassigned) [Example 38]
> 10	> 0.1	> 10	> 10	Cn1cc(-c2cc3c(N4CC[C@](C)(C#N)C4=O)ccnn3c2)cn1 (single isomer, unassigned) [Example 39]
> 10	> 0.1	5 to 10	5 to 10	COC[C@]1(C#N)CCN(c2ccnn3cc(-c4cnn(C)c4)cc23)C1=O (single isomer, unassigned) [Example 41]
1 to 5	0.05 to 0.1	1 to 5	1 to 5	CC[C@]1(C#N)CCN(c2ccnn3cc(-c4cnn(C)c4)cc23)C1=O (single isomer, unassigned) [Example 42]
> 10	> 0.1	> 10	> 10	CC[C@@]1(C#N)CCN(c2ccnn3cc(-c4cnn(C)c4)cc23)C1=O (single isomer, unassigned) [Example 43]
> 10	> 0.1	> 10	> 10	Cn1cc(-c2cc3c(N4CC[C@](C#N)(C5COC5)C4=O)ccnn3c2)cn1 (single isomer, unassigned) [Example 44]
> 10	> 0.1	> 10	> 10	Cn1cc(-c2cc3c(N4CC[C@@](C#N)(C5COC5)C4=O)ccnn3c2)cn1 (single isomer, unassigned) [Example 45]
5 to 10	> 0.1	0.1 to 1	1 to 5	Cn1cc(-c2cc3c(N4CC[C@@](C#N)(C5CCC5)C4=O)ccnn3c2)cn1 (single isomer, unassigned) [Example 46]
> 10	> 0.1	> 10	5 to 10	Cn1cc(-c2cc3c(N4CC[C@](C#N)(C5CCC5)C4=O)ccnn3c2)cn1 (single isomer, unassigned) [Example 47]
> 10	> 0.1	5 to 10	5 to 10	Cn1cc(-c2cc3c(N4CCC(C#N)C4=O)ccnn3c2)cn1 (centres unmarked) [Example 7, 1-(6-(1-methyl-1H-pyrazol-4-yl)pyrrolo[1,2-b]pyridazin-4-yl)-2-oxopyrrolidine-3-carbonitrile]
> 10	> 0.1	> 10	5 to 10	Cn1cc(-c2cc3c(N4CC[C@](C#N)(C5CC5)C4=O)ccnn3c2)cn1 [Example 14, (R)-3-cyclopropyl-1-(6-(1-methyl-1H-pyrazol-4-yl)pyrrolo[1,2-b]pyridazin-4-yl)-2-oxopyrrolidine-3-carbonitrile]
